Reference: publication PMC9297976 (Journal of Applied Toxicology, 2021)

Tests used:
[1] = target: T1, medaka ARβ (mArβ) (Oryzias latipes, UniProt D1MV73); assay: Medaka ARβ reporter gene assay, antagonist assay; type: cell-based, Japanese medaka (Oryzias latipes); details: 11‐KT spiked at 50 nM (D); MAC = 1.0 × 10^−4 M
T1 sequence (D1MV73 1-744): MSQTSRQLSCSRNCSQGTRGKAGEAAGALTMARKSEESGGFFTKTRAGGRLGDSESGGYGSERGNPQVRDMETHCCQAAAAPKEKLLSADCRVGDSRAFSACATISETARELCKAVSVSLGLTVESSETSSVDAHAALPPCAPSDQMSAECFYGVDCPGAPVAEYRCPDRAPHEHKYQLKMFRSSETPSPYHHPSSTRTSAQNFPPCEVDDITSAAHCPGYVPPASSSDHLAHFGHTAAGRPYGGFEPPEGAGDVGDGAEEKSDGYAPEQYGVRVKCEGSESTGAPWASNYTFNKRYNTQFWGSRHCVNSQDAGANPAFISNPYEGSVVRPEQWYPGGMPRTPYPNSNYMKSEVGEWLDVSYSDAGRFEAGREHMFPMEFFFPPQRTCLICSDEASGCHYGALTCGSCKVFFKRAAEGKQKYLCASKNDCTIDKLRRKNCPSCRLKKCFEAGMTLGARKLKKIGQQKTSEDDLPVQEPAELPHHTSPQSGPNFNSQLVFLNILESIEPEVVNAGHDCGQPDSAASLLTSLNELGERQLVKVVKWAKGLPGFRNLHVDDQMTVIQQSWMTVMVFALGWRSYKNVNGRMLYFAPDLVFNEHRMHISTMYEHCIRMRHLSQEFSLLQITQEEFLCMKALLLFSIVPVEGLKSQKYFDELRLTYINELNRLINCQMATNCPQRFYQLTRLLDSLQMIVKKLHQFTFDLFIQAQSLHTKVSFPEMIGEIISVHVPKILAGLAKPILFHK

[2] = tested on: Japanese medaka (Oryzias latipes); assay: Fish Short‐Term Reproduction Assay; type: in vivo; details: for GSI Female / GSI Male / HSI Female / HSI Male / Length Female / Length Male / Weight Female / Weight Male: completion of exposure
[3] = target: T1, medaka ARβ (mArβ); assay: Medaka ARβ reporter gene assay, agonist assay; type: cell-based, Japanese medaka (Oryzias latipes); details: MAC = 1.0 × 10^−4 M
[4] = target: T2, medaka Esr1 (mEsr1) (Oryzias latipes, UniProt P50241); assay: Medaka Esr1 reporter gene assay, antagonist assay; type: cell-based, Japanese medaka (Oryzias latipes); details: E2 spiked at 1.0 nM (B); MAC = 1.0 × 10^−4 M
T2 sequence (P50241 1-620): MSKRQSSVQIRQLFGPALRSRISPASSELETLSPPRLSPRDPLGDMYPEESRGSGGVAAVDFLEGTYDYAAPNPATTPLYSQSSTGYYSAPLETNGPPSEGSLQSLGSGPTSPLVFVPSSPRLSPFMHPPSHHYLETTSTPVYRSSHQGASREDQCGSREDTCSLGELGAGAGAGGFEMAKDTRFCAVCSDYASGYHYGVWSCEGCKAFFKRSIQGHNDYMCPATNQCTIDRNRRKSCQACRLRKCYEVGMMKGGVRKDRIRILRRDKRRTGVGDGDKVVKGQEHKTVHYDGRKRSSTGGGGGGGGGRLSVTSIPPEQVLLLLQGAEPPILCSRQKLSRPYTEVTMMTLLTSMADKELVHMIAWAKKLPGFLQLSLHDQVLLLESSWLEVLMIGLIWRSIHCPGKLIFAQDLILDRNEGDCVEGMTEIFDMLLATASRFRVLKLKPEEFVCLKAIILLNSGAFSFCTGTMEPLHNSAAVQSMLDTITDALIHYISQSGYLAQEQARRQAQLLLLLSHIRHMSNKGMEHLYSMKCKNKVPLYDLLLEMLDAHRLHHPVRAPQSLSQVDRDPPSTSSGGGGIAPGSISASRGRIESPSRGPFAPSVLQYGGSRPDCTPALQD

[5] = target: T2, medaka Esr1 (mEsr1); assay: cell-based; set-up: species or system Japanese medaka (Oryzias latipes)
[6] = 9.75 mg/L measured, 21 d, sig. ↓ vs control
[7] = measured concentration 0.357 mg/L
[8] = measured concentration 1.90 mg/L
[9] = measured concentration 9.75 mg/L

SMILES: COC(=O)c1ccc(O)cc1 [MPB, 4‐Hydroxybenzoate methyl]
- Antagonistic activity [1]: NE (MAC = 1.0 × 10^−4 M)^(D)
- Fertility rate ([2]; 0.357 mg/L measured, 21 d): 93 ± 2.9%
- Hepatic VTG, female ([2]; 0.357 mg/L measured, 21 d): 3,450 ± 724 ng/mg‐liver
- Hepatic VTG, male ([2]; 0.357 mg/L measured, 21 d): 1.7 ± 1.2 ng/mg‐liver
- Mortality ([2]; 0.357 mg/L measured, 21 d): 0.0%
- Mortality, number of dead fish ([2]; 0.357 mg/L measured, 21 d): 0
- Number of fertilized eggs (per female per day) ([2]; 0.357 mg/L measured, 21 d): 27 ± 3.5
- Number of total eggs (per female per day) ([2]; 0.357 mg/L measured, 21 d): 29 ± 3.3
- SSC female (joint plates with papillary processes) ([2]; 0.357 mg/L measured, 21 d): 0 ± 0
- Fertility rate ([2]; 1.90 mg/L measured, 21 d): 88 ± 7.7%
- Hepatic VTG, female ([2]; 1.90 mg/L measured, 21 d): 3,890 ± 992 ng/mg‐liver
- Mortality ([2]; 1.90 mg/L measured, 21 d): 0.0%
- Mortality, number of dead fish ([2]; 1.90 mg/L measured, 21 d): 0
- Number of fertilized eggs (per female per day) ([2]; 1.90 mg/L measured, 21 d): 24 ± 3.0
- Number of total eggs (per female per day) ([2]; 1.90 mg/L measured, 21 d): 28 ± 3.3
- SSC female (joint plates with papillary processes) ([2]; 1.90 mg/L measured, 21 d): 0 ± 0
- SSC male (joint plates with papillary processes) ([2]; 1.90 mg/L measured, 21 d): 99 ± 12
- Hepatic VTG, male ([2]; 1.90 mg/L measured, 21 d, sig. ↑ vs control): 153 ± 113 ng/mg‐liver
- Hepatic VTG, female ([2]; 9.75 mg/L measured, 21 d): 3,930 ± 963 ng/mg‐liver
- Mortality ([2]; 9.75 mg/L measured, 21 d): 13%
- Mortality, number of dead fish ([2]; 9.75 mg/L measured, 21 d): 3
- SSC female (joint plates with papillary processes) ([2]; 9.75 mg/L measured, 21 d): 0 ± 0
- SSC male (joint plates with papillary processes) ([2]; 9.75 mg/L measured, 21 d): 93 ± 15
- Hepatic VTG, male ([2]; 9.75 mg/L measured, 21 d, sig. ↑ vs control): 2,640 ± 1720 ng/mg‐liver
- Fertility rate [2, 6]: 78 ± 4.8%
- Number of fertilized eggs (per female per day) [2, 6]: 16 ± 2.3
- Number of total eggs (per female per day) [2, 6]: 20 ± 2.2
- Fecundity, number of total eggs (in words) ([2]; 21 d): statistically significant decrease
- LOEC, elevated hepatic VTG in males ([2]; 21 d): 1.90 mg/L
- Daily fecundity on the first day ([2]; Figure 3C): less than 10 eggs/female
- LOECREPRO ([2]; LOEC on reproduction (fecundity and/or fertility)): 9,750 μg/L
- minimal effective concentration ([2]; Oryzias latipes, 504 h, read-out: LOECmVTG): 1.9 µg/mL
- LOECREPRO (reduction in fecundity or fertility) ([2]; concentrations without overt toxicity): 9,750 μg/L
- LOECTOX ([2]; lowest observed effect concentration on mortality): ND (>9,750) μg/L
- GSI Female [2, 7]: 11.0 ± 1.2%
- GSI Male [2, 7]: 0.74 ± 0.18%
- HSI Female [2, 7]: 4.4 ± 0.44%
- HSI Male [2, 7]: 2.1 ± 0.16%
- Length Female [2, 7]: 37.0 ± 1.3 mm
- Length Male [2, 7]: 36.0 ± 0.5 mm
- Weight Female [2, 7]: 589 ± 39 mg
- Weight Male [2, 7]: 514 ± 28 mg
- GSI Female [2, 8]: 11.0 ± 0.9%
- GSI Male [2, 8]: 0.81 ± 0.06%
- HSI Female [2, 8]: 4.7 ± 0.59%
- HSI Male [2, 8]: 2.4 ± 0.21%
- Length Female [2, 8]: 36.2 ± 1.2 mm
- Length Male [2, 8]: 36.4 ± 1.3 mm
- Weight Female [2, 8]: 574 ± 27 mg
- Weight Male [2, 8]: 530 ± 47 mg
- GSI Female [2, 9]: 9.8 ± 0.9%
- GSI Male [2, 9]: 0.69 ± 0.15%
- HSI Female [2, 9]: 5.4 ± 0.38%
- HSI Male [2, 9]: 2.3 ± 0.60%
- Length Female [2, 9]: 36.6 ± 1.4 mm
- Length Male [2, 9]: 36.2 ± 1.1 mm
- Weight Female [2, 9]: 603 ± 47 mg
- Weight Male [2, 9]: 504 ± 62 mg
- Agonistic activity [3]: NE (MAC = 1.0 × 10^−4 M)
- Antagonistic activity [4]: NE (MAC = 1.0 × 10^−4 M)^(B)
- EC50 [5]: 70 µM
- In vitro positive: Esr ([5]; mode of action in which EC50 or PC10 was obtained in RGA): Esr
